# Source: US20150141414A1, “Formulation of Stable Recombinant Alpha-Fetoprotein Conjugated with Anti-Tumor Substance in Target-Delivery System for Treatment of Cancer and Autoimmune Disease” (priority 2013, published 2015)
# Where two headings read alike, the source gives them in different places. Starred links: 1 amine or outer side, 2 acyl side, 3 side chain; linkers in the order of their positions; H or OH if unused. Positions of bridges follow the written chain, without caps; N, C: chain ends. Non-standard residues stand in square brackets, D forms with d. Residues, ends and D or L forms follow the SMILES beside them. Chains are numbered I, II in the order given. Actinocin(9to1) = Cc1c2oc3c(C)ccc(C(=O)[*:1])c3nc-2c(C(=O)[*:2])c(N)c1=O; NMeV = CN[C@H](C(=O)O)C(C)C; Sar = CNCC(=O)O
# Experiments:
# cat = conditions: cited from earlier work
# mouse = conditions: cited from earlier work
# [1] = system: lymphocyte of an average healthy person; assay: Dose-dependent survival of lymphocytes of a healthy person; format: cell-based; conditions: Homo sapiens, read-out: 50% growth inhibition concentration
# From the text: Each value depicted in FIGS. 1A and 1B is the mean of three determinations with coefficient of variation less than 20%.
# [2] = system: Hela cervical cancer cells; assay: MTT cytotoxicity assay, Hela cervical cancer cells; format: cell-based; conditions: Homo sapiens, mean of three determinations, read-out: 50% growth inhibition concentration (1050)
# Protocol: The cytotoxicity of dactinomycin incorporated in PLGA conjugated with rAFP was tested with Hela cervical cancer cells. It is recognized that the use of PLGA as the controlled release polymer system is particularly suitable for the intent of the present invention because PLGA is well known for its safety in clinic. The Hela cells were doused with both dactinomycin in bulk. MTT assay was then performed to quantify the inhibitory concentration. […] 1050 was calculated from the cell viability data as the drug concentration in which cell growth was inhibited by 50%.
# rat = conditions: cited from earlier work
# frog = conditions: intravenous injection; cited from earlier work
# pigeon = conditions: intravenous injection; cited from earlier work
smiles,measurement,setting,value
C[C@]12CC[C@H](O)C[C@H]1CC[C@@H]1[C@@H]2CC[C@]2(C)[C@@H](c3ccc(=O)oc3)CC[C@]12O [bufalin],LD50 intravenous,cat,0.14 mg/kg
same,LD50 intravenous,"mouse; mouse, intravenous",0.74 mg/kg
"Cc1c2oc3c(C)ccc(C(=O)N[C@@H]4C(=O)N[C@H](C(C)C)C(=O)N5CCC[C@H]5C(=O)N(C)CC(=O)N(C)[C@@H](C(C)C)C(=O)O[C@@H]4C)c3nc-2c(C(=O)N[C@@H]2C(=O)N[C@H](C(C)C)C(=O)N3CCC[C@H]3C(=O)N(C)CC(=O)N(C)[C@@H](C(C)C)C(=O)O[C@@H]2C)c(N)c1=O [dactinomycin in bulk, Dactinomycin] (I: T[dV]P[Sar][NMeV] / II: T[dV]P[Sar][NMeV]; ester I:1-I:C, II:1-II:C; linker I:N-II:N via Actinocin(9to1))",IC50,[1],23.8 nM
same,IC50,[2],1.7 nM
same,lethal dose as multiple of maximum recommended daily human dose (body surface area basis),"mouse; mice, intravenous 700 mcg/kg",3.8 times
same,lethal intravenous dose,"mouse; mice, intravenous",0.7 mg/kg
same,oral LD50,"mouse; mouse, oral",7.8 mg/kg
same,oral LD50,"rat; rat, oral",7.2 mg/kg
same,lethal dose as multiple of maximum recommended daily human dose (body surface area basis),"rat; rats, intravenous 500 mcg/kg",5.4 times
same,lethal intravenous dose,"rat; rats, intravenous",0.5 mg/kg
C[C@H]1O[C@@H](O[C@H]2[C@@H](O)C[C@H](O[C@H]3[C@@H](O)C[C@H](O[C@H]4CC[C@@]5(C)[C@H](CC[C@@H]6[C@@H]5CC[C@]5(C)[C@@H](C7=CC(=O)OC7)CC[C@]65O)C4)O[C@@H]3C)O[C@@H]2C)C[C@H](O)[C@@H]1O [digitoxin],LD50 intravenous,"mouse; mouse, intravenous injection",4.1 mg/kg
same,LD50 intravenous,frog,0.73 mg/kg
same,LD50 intravenous,pigeon,0.32 mg/kg
CN(Cc1cnc2nc(N)nc(N)c2n1)c1ccc(C(=O)N[C@@H](CCC(=O)O)C(=O)O)cc1 [methotrexate],LD50 intravenous,"rat; rats, intravenous",14 mg/kg body weight
COc1cc2c(Nc3ccc(Br)cc3F)ncnc2cc1OCC1CCN(C)CC1 [vandetanib],LD50 intravenous,"rat; rats, intravenous",17-41 mg/kg body weight
